Values quoted from earlier work as cited in patent US20040006103A1, “Use of chloroquine, hydroxychloroquine and 4 amino-quinolinic derivatives to obtain a drug for the anti retroviral therapy, active towards HIV sensitive strains and towards HIV strains which are resistant to both nucleosidic and non-nucleosidic reverse transcriptase inhibitors and to proteases …” (VALPHARMA S.A., priority 2002, published 2004).

Legend:
HIV-1 [1] = conditions: Sperber (1993), cited from earlier work
HIV-1 [2] = conditions: 800 mg/day, 8 weeks, Sperber et al. (1995), cited from earlier work
HIV [3] = conditions: 800 mg/day, compared to placebo; Sperber et al. 1997; cited from earlier work
HIV [4] = conditions: in vitro, cited from earlier work
[5] = plasmatic concentrations 7 to 15 microM, prolonged over 18-24 months; Lange (1994); cited from earlier work
HIV-1 [6] = conditions: association hydroxychloroquine (400 mg/day) plus HU plus ddI, 48 weeks, Paton et al. 2002, cited from earlier work
HIV [7] = conditions: cited from earlier work
HIV [8] = conditions: continuous cultures of cells from the lymphocyte system; Tsai (1990); cited from earlier work

CCN(CCO)CCCC(C)Nc1ccnc2cc(Cl)ccc12 (centres unmarked) [HCQ, hydroxychloroquine]
production of infecting viral particles (HIV-1 [1]; CEM cells used as target): almost completely inhibits | inhibition of HIV-1 replication (HIV-1 [1]; PBMC, U-937, CEM): > 75% | toxic effect in cell cultures (HIV-1 [1]; concentration suitable for inhibit viral replication): no toxic effect was found | quantity of HIV-RNA (HIV-1 [2]; asymptomatic HIV-1 positive patients): significantly decreased | negative events (HIV-1 [2]): No negative event was observed | plasmatic HIV-RNA (HIV [3]): significant reduction | effect on inhibition of the HIV replication when added to ddI plus HU (HIV [4]; Boelaert et al. (1999)): extra effect | effect when added to the association AZT plus HU (HIV [4]; Boelaert et al. (2001)): additional effect | retinopathy [5]: rarely induced retinopathy | decrement of plasmatic HIV-RNA (HIV-1 [6]; 22 patients): 1.3 logs | tolerability (HIV-1 [6]): well tolerated | negative events (HIV [7]; 16 weeks, hydroxychloroquine 800 mg/day, AZT 500 mg/day): no negative events were observed | patients with an increase of plasmatic viremia (HIV [7]; at the 8th and at the 16th week): nobody

CCN(CC)CCCC(C)Nc1ccnc2cc(Cl)ccc12 (centres unmarked) [CQ, chloroquine]
inhibition of the HIV replicative cycle (HIV [8]): inhibits the HIV replicative cycle
